This is an account of results in patent US20230406831A1, “COMPOUNDS AND METHODS OF INHIBITING BACTERIAL CHAPERONIN SYSTEMS” (THE TRUSTEES OF INDIANA UNIVERSITY, priority 2020, published 2023).

One assay concerns the target T1, GroEL/ES (Escherichia coli, UniProt P0A6F5).
T1 construct: made in house; host or cells: GroEL in E. coli DH5a; GroES in E. coli BL21 (DE3)
Kind of assay: GroEL/ES-mediated dMDH refolding assay. The assay is classed as biochemical, E. coli. Summed up: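 Pre-formed chaperonin–denatured pig heart MDH complexes (50 nM GroEL or HSP60, 60 nM GroES or HSP10, 12 nM dMDH) refolded with 1 mM ATP and compound (100 μM–46 nM) at 37 °C, ~20-40 min for GroEL/ES or ~40-60 min for HSP60/10. After EDTA quench, MDH activity was read as NADH loss at A340. IC50 came from variable-slope regression.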

For the next assay, the target named is T2, native MDH (Sus scrofa, UniProt P00346).
T2 construct: soluble pig heart MDH from Roche, product #10127248001; purchased Roche 10127248001; host or cells: pig heart
T2 sequence (P00346 25-338): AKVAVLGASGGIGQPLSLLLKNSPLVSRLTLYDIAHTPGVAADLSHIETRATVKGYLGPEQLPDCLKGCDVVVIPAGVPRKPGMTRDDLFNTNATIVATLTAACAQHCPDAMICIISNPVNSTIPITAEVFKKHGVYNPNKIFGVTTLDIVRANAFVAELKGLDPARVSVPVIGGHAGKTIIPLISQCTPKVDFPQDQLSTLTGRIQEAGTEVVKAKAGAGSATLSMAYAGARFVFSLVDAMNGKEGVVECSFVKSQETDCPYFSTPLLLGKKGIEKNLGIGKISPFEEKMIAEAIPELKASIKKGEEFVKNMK
The assay is described as follows: Native MDH enzymatic activity counter-screen. The assay is classed as biochemical, pig. An outline of the steps: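 GroEL/ES-refolded MDH (45 min, 37 °C, no compound) quenched with EDTA before compound addition, so only refolded enzyme is exposed. Activity started with 20 mM sodium mesoxalate and 2.4 mM NADH stock (50 mM Tris pH 7.4, 50 mM KCl, 1 mM DTT); NADH A340 followed to ~90% consumption.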

Setting [1] is: Table 3, compounds added after refolding and EDTA quench, read-out: Biochemical Assay IC50 Native MDH Activity.
Where [2] appears, read: Table 1, compounds added after refolding and EDTA quench, read-out: Biochemical Assay IC50 Native MDH Activity.

Read-outs that look alike come from different tables or passages of the source. Where only a bound is given, the exact number is not on record here.

T1 sequence (P0A6F5 2-548): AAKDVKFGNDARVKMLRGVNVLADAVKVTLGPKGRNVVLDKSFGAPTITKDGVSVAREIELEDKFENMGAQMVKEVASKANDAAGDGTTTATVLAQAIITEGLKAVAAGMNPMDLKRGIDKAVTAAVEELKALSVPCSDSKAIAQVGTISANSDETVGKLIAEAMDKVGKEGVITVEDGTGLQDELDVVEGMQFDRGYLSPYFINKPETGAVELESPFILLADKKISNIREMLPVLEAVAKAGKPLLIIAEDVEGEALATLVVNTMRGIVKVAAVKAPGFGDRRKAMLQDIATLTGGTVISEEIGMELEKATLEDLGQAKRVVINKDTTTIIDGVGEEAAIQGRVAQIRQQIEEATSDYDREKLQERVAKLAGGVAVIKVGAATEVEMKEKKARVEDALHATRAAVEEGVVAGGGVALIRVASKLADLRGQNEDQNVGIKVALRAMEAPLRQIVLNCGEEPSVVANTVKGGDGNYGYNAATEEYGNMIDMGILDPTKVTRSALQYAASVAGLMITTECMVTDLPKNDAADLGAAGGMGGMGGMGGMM

On to `COc1ccc(Cl)cc1C(=O)Nc1ccccc1` [Compound 116, 5-chloro-2-methoxy-N-phenylbenzamide], for which the IC50 on GroEL/ES was > 100 µM; on native MDH (setting [1]), > 63 µM.

As for `O=C(Nc1ccccc1)c1cc(Cl)ccc1O` [Compound 117, 5-chloro-2-hydroxy-N-phenylbenzamide], the IC50 was > 100 µM on GroEL/ES and > 63 µM on native MDH (setting [1]).

For the compound `O=C(Nc1ccc([N+](=O)[O-])cc1Cl)c1cc(Cl)ccc1O` [Niclosamide, reference compound], the IC50 on GroEL/ES was > 100 µM; at GroEL/ES (read-out: Biochemical Assay IC50 GroEL/ES-dMDH Refolding, Table 3, 37° C., 1 mM ATP), > 100 µM; on native MDH (setting [2]), > 63 µM; on native MDH (setting [1]), > 63 µM.

Regarding `CC(=O)Oc1ccccc1C(=O)Nc1ncc([N+](=O)[O-])s1` [Nitazoxanide, reference compound], the IC50 on GroEL/ES is > 100 µM; at native MDH (setting [2]), > 63 µM.

On to `O=C(Nc1cc(Cl)cc(Cl)c1O)c1c(O)c(Cl)cc(Cl)c1Cl` [Oxyclosanide, reference compound], for which the IC50 against GroEL/ES is 45 µM; on native MDH (setting [2]), 54 µM.

`O=C(Nc1ccc(Oc2ccc(Cl)cc2)c(Cl)c1)c1cc(I)cc(I)c1O` [Rafoxanide, reference compound]: the IC50 at GroEL/ES (Table 1, 37° C., 1 mM ATP, read-out: Biochemical Assay IC50 GroEL/ES-dMDH Refolding) is 3.8 µM; at native MDH, 17 µM.

For `O=C(Nc1ncc([N+](=O)[O-])s1)c1ccccc1O` [Tizoxanide, reference compound], the IC50 was > 100 µM against GroEL/ES and > 63 µM at native MDH (setting [2]).
